Key:
Assay in all cases: combination Emax (second highest fraction inhibited in the dose matrix, 72 h); higher = more inhibition; extreme values may be limits of the assay
[1] = system: CADO-ES1 (Ewing's Sarcoma)
Procedure, shortened: (§1)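 Bliss excess equals the observed combination effect minus the expected value EA + EB − EA·EB, where EA and EB are the effects of each agent alone. Combination Emax is the second-highest inhibition within the matrix. Inhibition was scaled from CellTiter-Glo 2.0 luminescence, with 0 set by vehicle wells and 1 by blank wells, after 72 hours of two-drug dosing of cells plated in 1536-well plates.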

COLO-679 (Melanoma) = system: COLO-679 (Melanoma)
Procedure, shortened: as §1

[2] = system: DU-145 (Prostate Carcinoma)
Procedure, shortened: as §1

[3] = system: EFO-21 (Ovarian Carcinoma)
Procedure, shortened: as §1

[4] = system: HCC2998 (Colorectal Carcinoma)
Procedure, shortened: as §1

Hey (Ovarian Carcinoma) = system: Hey (Ovarian Carcinoma)
Procedure, shortened: as §1

[5] = system: KGN (Other Solid Carcinomas)
Procedure, shortened: as §1

[6] = system: KMRC-1 (Kidney Carcinoma)
Procedure, shortened: as §1

[7] = system: LC-1-sq (Squamous Cell Lung Carcinoma)
Procedure, shortened: as §1

[8] = system: ME-180 (Cervical Carcinoma)
Procedure, shortened: as §1

[9] = system: ML-2 (Acute Myeloid Leukemia)
Procedure, shortened: as §1

[10] = system: MOG-G-UVW (Low Grade Glioma)
Procedure, shortened: as §1

[11] = system: MOLT-4 (T-Lymphoblastic Leukemia)
Procedure, shortened: as §1

[12] = system: MV-4-11 (Acute Myeloid Leukemia)
Procedure, shortened: as §1

[13] = system: Mo-T (Other Blood Carcinomas)
Procedure, shortened: as §1

[14] = system: NCI-H1838 (Lung Adenocarcinoma)
Procedure, shortened: as §1

[15] = system: NCI-H522 (Lung Adenocarcinoma)
Procedure, shortened: as §1

SK-N-AS (Neuroblastoma) = system: SK-N-AS (Neuroblastoma)
Procedure, shortened: as §1

[16] = system: SKN (Other Solid Carcinomas)
Procedure, shortened: as §1

[17] = system: SW982 (Other Solid Carcinomas)
Procedure, shortened: as §1

| Compound | combination Emax [1] | combination Emax (COLO-679 (Melanoma)) | combination Emax [2] | combination Emax [3] | combination Emax [4] | combination Emax (Hey (Ovarian Carcinoma)) | combination Emax [5] | combination Emax [6] | combination Emax [7] | combination Emax [8] | combination Emax [9] | combination Emax [10] | combination Emax [11] | combination Emax [12] | combination Emax [13] | combination Emax [14] | combination Emax [15] | combination Emax (SK-N-AS (Neuroblastoma)) | combination Emax [16] | combination Emax [17] |
| --- | --- | --- | --- | --- | --- | --- | --- | --- | --- | --- | --- | --- | --- | --- | --- | --- | --- | --- | --- | --- |
| CN(C)CCCOc1ccc(-c2ccc3ncc4c(c3c2)n(C2CCOCC2)c(=O)n4C)cn1 [AZD0156] + C[C@@H]1COCCN1C2=NC(=NC(=C2)C3(CC3)[S@](=N)(=O)C)C4=C5C=CNC5=NC=C4 [AZD6738] (first compound max 1 µM, 7x7, partner max 10 µM) | 0.903 | 0.749 | 0.544 | 0.549 | 0.831 | 0.84 | 0.848 | 0.575 | 0.877 | 0.343 | 0.967 | 0.816 | 0.97 | 0.992 | 0.481 | 0.745 | 0.0837 | 0.805 | 0.344 | 0.723 |
| C=CCn1c(=O)c2cnc(Nc3ccc(N4CCN(C)CC4)cc3)nc2n1-c1cccc(C(C)(C)O)n1 [AZD1775] + O=C(c1cc(Cc2n[nH]c(=O)c3ccccc23)ccc1F)N1CCN(C(=O)C2CC2)CC1 [Olaparib] (first compound max 1 µM, partner max 10 µM) | 0.636 | 0.491 | 0.255 | 0.308 | 0.448 | 0.552 | 0.745 | 0.279 | 0.901 | 0.457 | 1 | 0.864 | 1 | 0.978 | 0.456 | 0.477 | 0.363 | 0.78 | 0.412 | 0.787 |
| CCN(CCO)CCCOc1ccc2c(Nc3cc(CC(=O)Nc4cccc(F)c4)[nH]n3)ncnc2c1 [AZD2811] + C=CCn1c(=O)c2cnc(Nc3ccc(N4CCN(C)CC4)cc3)nc2n1-c1cccc(C(C)(C)O)n1 [AZD1775] (first compound max 1 µM, partner max 1 µM) | 0.454 | 0.491 | 0.251 | 0.472 | 0.599 | 0.497 | 0.767 | 0.184 | 0.864 | 0.396 | 1 | 0.771 | 1 | 0.936 | 0.311 | 0.483 | 0.218 | 0.728 | 0.236 | 0.742 |
| CCN(CCO)CCCOc1ccc2c(Nc3cc(CC(=O)Nc4cccc(F)c4)[nH]n3)ncnc2c1 [AZD2811] + C[C@@H]1COCCN1C2=NC(=NC(=C2)C3(CC3)[S@](=N)(=O)C)C4=C5C=CNC5=NC=C4 [AZD6738] (first compound max 1 µM, 7x7, partner max 10 µM) | 0.843 | 0.679 | 0.596 | 0.45 | 0.777 | 0.711 | 0.822 | 0.566 | 0.823 | 0.43 | 0.985 | 0.783 | 1 | 0.998 | 0.556 | 0.643 | 0.142 | 0.784 | 0.393 | 0.71 |
| CCN(CCO)CCCOc1ccc2c(Nc3cc(CC(=O)Nc4cccc(F)c4)[nH]n3)ncnc2c1 [AZD2811] + O=C(c1cc(Cc2n[nH]c(=O)c3ccccc23)ccc1F)N1CCN(C(=O)C2CC2)CC1 [Olaparib] (first compound max 1 µM, 7x7, partner max 10 µM) | 0.531 | 0.281 | 0.199 | 0.203 | 0.247 | 0.319 | 0.629 | 0.19 | 0.305 | 0.252 | 0.835 | 0.668 | 0.974 | 0.961 | 0.369 | 0.275 | 0.221 | 0.249 | 0.127 | 0.658 |
| CN(CCO)CC[C@H](CSc1ccccc1)Nc1ccc(S(=O)(=O)NC(=O)c2ccc(N3CCC([C@@H](O)c4ccccc4-c4ccc(Cl)cc4)CC3)cc2)cc1S(=O)(=O)C(F)(F)F [AZD4320] + CN(C)CCCOc1ccc(-c2ccc3ncc4c(c3c2)n(C2CCOCC2)c(=O)n4C)cn1 [AZD0156] (first compound max 1 µM, 7x7, partner max 1 µM) | 0.611 | 0.162 | 0.0779 | 0.179 | 0.554 | 0.256 | 0.425 | 0.2 | 0.217 | 0.246 | 0.963 | 0.135 | 0.976 | 1 | 0.483 | 0.225 | 0.0875 | 0.109 | 0.127 | 0.225 |
| COc1nnc2ccc(N3CCC(c4ccc(OCCN5CCN(C)C(=O)[C@H]5C)cc4)CC3)nn12 [AZD5153] + C=CCn1c(=O)c2cnc(Nc3ccc(N4CCN(C)CC4)cc3)nc2n1-c1cccc(C(C)(C)O)n1 [AZD1775] (first compound max 1 µM, partner max 1 µM) | 0.387 | 0.505 | 0.316 | 0.51 | 0.92 | 0.655 | 0.781 | 0.358 | 0.665 | 0.68 | 1 | 0.711 | 1 | 1 | 0.729 | 0.441 | 0.51 | 0.669 | 0.687 | 0.825 |
| COc1nnc2ccc(N3CCC(c4ccc(OCCN5CCN(C)C(=O)[C@H]5C)cc4)CC3)nn12 [AZD5153] + CC1(C)CCC(CN2CCN(c3ccc(C(=O)NS(=O)(=O)c4ccc(NCC5CCOCC5)c([N+](=O)[O-])c4)c(Oc4cnc5[nH]ccc5c4)c3)CC2)=C(c2ccc(Cl)cc2)C1 [Venetoclax] (first compound max 1 µM, 7x7, partner max 1 µM) | 0.665 | 0.442 | 0.288 | 0.425 | 0.685 | 0.523 | 0.729 | 0.263 | 0.603 | 0.49 | 1 | 0.715 | 0.425 | 1 | 0.611 | 0.35 | 0.415 | 0.415 | 0.594 | 0.767 |
| COc1nnc2ccc(N3CCC(c4ccc(OCCN5CCN(C)C(=O)[C@H]5C)cc4)CC3)nn12 [AZD5153] + CCN(CCO)CCCOc1ccc2c(Nc3cc(CC(=O)Nc4cccc(F)c4)[nH]n3)ncnc2c1 [AZD2811] (first compound max 1 µM, 7x7, partner max 1 µM) | 0.248 | 0.485 | 0.265 | 0.425 | 0.752 | 0.618 | 0.691 | 0.316 | 0.609 | 0.524 | 1 | 0.802 | 1 | 1 | 0.599 | 0.441 | 0.344 | 0.447 | 0.608 | 0.807 |
| COc1nnc2ccc(N3CCC(c4ccc(OCCN5CCN(C)C(=O)[C@H]5C)cc4)CC3)nn12 [AZD5153] + C[C@@H]1COCCN1C2=NC(=NC(=C2)C3(CC3)[S@](=N)(=O)C)C4=C5C=CNC5=NC=C4 [AZD6738] (first compound max 1 µM, 7x7, partner max 10 µM) | 0.88 | 0.718 | 0.447 | 0.488 | 0.926 | 0.796 | 0.822 | 0.456 | 0.783 | 0.696 | 1 | 0.769 | 0.999 | 1 | 0.746 | 0.441 | 0.565 | 0.716 | 0.71 | 0.843 |
| COc1nnc2ccc(N3CCC(c4ccc(OCCN5CCN(C)C(=O)[C@H]5C)cc4)CC3)nn12 [AZD5153] + Cc1c2c(nn1C)CSCc1cc(n(C)n1)CSc1cc(c3ccccc3c1)OCCCc1c(C(=O)O)n(C)c3c-2c(Cl)ccc13 [AZD5991] (first compound max 1 µM, 7x7, partner max 1 µM) | 0.659 | 0.874 | 0.242 | 0.414 | 1 | 0.598 | 0.742 | 0.322 | 0.771 | 0.438 | 1 | 0.763 | 0.95 | 1 | 0.616 | 0.731 | 0.942 | 0.739 | 0.568 | 0.771 |
| COc1nnc2ccc(N3CCC(c4ccc(OCCN5CCN(C)C(=O)[C@H]5C)cc4)CC3)nn12 [AZD5153] + Cn1cnc2c(F)c(Nc3ccc(Br)cc3Cl)c(C(=O)NOCCO)cc21 [Selumetinib] (first compound max 1 µM, 7x7, partner max 10 µM) | 0.444 | 0.884 | 0.28 | 0.439 | 0.95 | 0.726 | 0.729 | 0.346 | 0.677 | 0.592 | 1 | 0.658 | 0.162 | 1 | 0.659 | 0.394 | 0.469 | 0.663 | 0.65 | 0.789 |
| Cc1c2c(nn1C)CSCc1cc(n(C)n1)CSc1cc(c3ccccc3c1)OCCCc1c(C(=O)O)n(C)c3c-2c(Cl)ccc13 [AZD5991] + C1CN(CCC1(C(=O)N[C@@H](CCO)C2=CC=C(C=C2)Cl)N)C3=NC=NC4=C3C=CN4 [Capivasertib] (first compound max 1 µM, 7x7, partner max 3 µM) | 0.927 | 0.19 | 0.187 | 0.179 | 0.902 | 0.156 | 0.329 | 0.432 | 0.217 | 0.517 | 1 | 0.444 | 0.92 | 1 | 0.281 | 0.306 | 0.507 | 0.692 | 0.455 | 0.192 |
